Data taken from ChEMBL document CHEMBL4609992, “Discovery of novel small molecule induced selective degradation of the bromodomain and extra-terminal (BET) bromodomain protein BRD4 and BRD2 with cellular potencies” (Bioorg Med Chem, 2020).

How the values were obtained:
MCF7 = test: Growth inhibition of human MCF7 cells assessed as cell growth inhibition incubated for 48 hrs by sulforhodamine B assay; type: functional; conditions: MCF7, 48 h
KM12 = test: Growth inhibition of human KM12 cells assessed as cell growth inhibition incubated for 48 hrs by sulforhodamine B assay; type: functional; conditions: KM12, 48 h
IGROV-1 = test: Growth inhibition of human IGROV1 cells assessed as cell growth inhibition incubated for 48 hrs by sulforhodamine B assay; type: functional; conditions: IGROV-1, 48 h
SF-268 = test: Growth inhibition of human SF268 cells assessed as cell growth inhibition incubated for 48 hrs by sulforhodamine B assay; type: functional; conditions: SF-268, 48 h
SF-295 = test: Growth inhibition of human SF295 cells assessed as cell growth inhibition incubated for 48 hrs by sulforhodamine B assay; type: functional; conditions: SF-295, 48 h
VCaP = test: Antiproliferative activity against human VCaP cells assessed as reduction in cell viability; type: functional, cell-based
NCI-H23 = test: Growth inhibition of human NCI-H23 cells assessed as cell growth inhibition incubated for 48 hrs by sulforhodamine B assay; type: functional; conditions: NCI-H23, 48 h
SNB-75 = test: Growth inhibition of human SNB75 cells assessed as cell growth inhibition incubated for 48 hrs by sulforhodamine B assay; type: functional; conditions: SNB-75, 48 h
CCRF-CEM = test: Growth inhibition of human CCRF-CEM cells assessed as cell growth inhibition incubated for 48 hrs by sulforhodamine B assay; type: functional
LNCaP = test: Antiproliferative activity against human LNCAP cells assessed as reduction in cell viability; type: functional, cell-based
MV4-11 [1] = test: Induction of apoptosis in human MV4-11 cells at < 30 nM measured after 48 hrs by Annexin V-FITC/propidium iodide staining based FACScan flow cytometry relative to control; type: functional
DU-145 [2] = test: Antiproliferative activity against human DU145 cells assessed as reduction in cell viability; type: functional, cell-based
SR = test: Growth inhibition of human SR cells assessed as cell growth inhibition incubated for 48 hrs by sulforhodamine B assay; type: functional
SK-MEL-5 = test: Growth inhibition of human SK-MEL-5 cells assessed as cell growth inhibition incubated for 48 hrs by sulforhodamine B assay; type: functional; conditions: SK-MEL-5, 48 h
COLO 205 = test: Growth inhibition of human COLO205 cells assessed as cell growth inhibition incubated for 48 hrs by sulforhodamine B assay; type: functional; conditions: COLO 205, 48 h
MDA-MB-231 = test: Growth inhibition of human MDA-MB-231 cells assessed as cell growth inhibition incubated for 48 hrs by sulforhodamine B assay; type: functional; conditions: MDA-MB-231, 48 h
CWR22R = test: Antiproliferative activity against human 22Rv1 cells assessed as reduction in cell viability; type: functional, cell-based
NCI-H1975 = test: Antiproliferative activity against human NCI-H1975 cells assessed as reduction in cell viability; type: functional, cell-based
SNB-19 = test: Growth inhibition of human SNB19 cells assessed as cell growth inhibition incubated for 48 hrs by sulforhodamine B assay; type: functional; conditions: SNB-19, 48 h
CAKI-1 = test: Growth inhibition of human Caki1 cells assessed as cell growth inhibition incubated for 48 hrs by sulforhodamine B assay; type: functional; conditions: CAKI-1, 48 h
K562 = test: Growth inhibition of human K562 cells assessed as cell growth inhibition incubated for 48 hrs by sulforhodamine B assay; type: functional; conditions: K562, 48 h
MV4-11 [3] = test: Cell cycle arrest in human MV4-11 cells assessed as accumulation at G1 phase at 100 nM measured after 24 hrs by RNase/propidium iodide staining based FACScan flow cytometry (reference value: 59.66 %); type: functional
OVCAR-4 = test: Growth inhibition of human OVCAR4 cells assessed as cell growth inhibition incubated for 48 hrs by sulforhodamine B assay; type: functional; conditions: OVCAR-4, 48 h
NCI-H1650 = test: Antiproliferative activity against human NCI-H1650 cells assessed as reduction in cell viability; type: functional, cell-based
A-375 = test: Antiproliferative activity against human A375 cells assessed as reduction in cell viability; type: functional, cell-based
DU-145 [4] = test: Growth inhibition of human DU145 cells assessed as cell growth inhibition incubated for 48 hrs by sulforhodamine B assay; type: functional; conditions: DU-145, 48 h
Malme-3M = test: Growth inhibition of human MALME-3M cells assessed as cell growth inhibition incubated for 48 hrs by sulforhodamine B assay; type: functional
BT-549 = test: Growth inhibition of human BT549 cells assessed as cell growth inhibition incubated for 48 hrs by sulforhodamine B assay; type: functional; conditions: BT-549, 48 h
SW-620 = test: Growth inhibition of human SW620 cells assessed as cell growth inhibition incubated for 48 hrs by sulforhodamine B assay; type: functional; conditions: SW-620, 48 h
Hs-578T = test: Growth inhibition of human Hs 578T cells assessed as cell growth inhibition incubated for 48 hrs by sulforhodamine B assay; type: functional
HT-29 = test: Growth inhibition of human HT-29 cells assessed as cell growth inhibition incubated for 48 hrs by sulforhodamine B assay; type: functional; conditions: HT-29, 48 h
[5] = molecular target: Protein cereblon/Bromodomain-containing protein 4/Cullin-4A (Homo sapiens) (UniProt O60885+Q96SW2+Q13619); test: Protac activity at cereblon/cullin4A/BRD4 in human MV4-11 cells assessed as induction of BRD4 degradation at 50 nM measured after 18 hrs by Western blot analysis relative to control; type: cell-based
PC-3 = test: Antiproliferative activity against human PC3 cells assessed as reduction in cell viability; type: functional, cell-based
T47D = test: Growth inhibition of human T47D cells assessed as cell growth inhibition incubated for 48 hrs by sulforhodamine B assay; type: functional
MDA-MB-468 = test: Growth inhibition of human MDA-MB-468 cells assessed as cell growth inhibition incubated for 48 hrs by sulforhodamine B assay; type: functional; conditions: MDA-MB-468, 48 h
MV4-11 [6] = test: Antiproliferative activity against human MV4-11 cells assessed as reduction in cell viability measured after 48 hrs by CellTiter-Glo assay; type: functional, cell-based; conditions: MV4-11, 48 h
OVCAR-8 = test: Growth inhibition of human OVCAR8 cells assessed as cell growth inhibition incubated for 48 hrs by sulforhodamine B assay; type: functional; conditions: OVCAR-8, 48 h
HCT-116 = test: Growth inhibition of human HCT116 cells assessed as cell growth inhibition incubated for 48 hrs by sulforhodamine B assay; type: functional; conditions: HCT-116, 48 h

COc1ccccc1S(=O)(=O)Nc1ccc2c3c(cc(CCC(=O)NCCCCNc4cccc5c4C(=O)N(C4CCC(=O)NC4=O)C5=O)cc13)C(=O)N2C (stereo not drawn)
GI50 (MCF7): 303 nM | GI50 (KM12): 675 nM | GI50 (IGROV-1): 145 nM | GI50 (SF-268): 366 nM | GI50 (SF-295): 3220 nM | IC50 (VCaP): 250 nM | GI50 (NCI-H23): 37500 nM | GI50 (SNB-75): 89 nM | GI50 (CCRF-CEM): 28 nM | IC50 (LNCaP): 620 nM | Activity (MV4-11 [1]): 86.86% | IC50 (DU-145 [2]): 3660 nM | GI50 (SR): 122 nM | GI50 (SK-MEL-5): 1120 nM | GI50 (COLO 205): 495 nM | GI50 (MDA-MB-231): 32 nM | IC50 (CWR22R): 81 nM | IC50 (NCI-H1975): 459 nM | GI50 (SNB-19): 475 nM | GI50 (CAKI-1): 2630 nM | GI50 (K562): 422 nM | Activity (MV4-11 [3]): 71.37% | GI50 (OVCAR-4): 259 nM | IC50 (NCI-H1650): 1330 nM | IC50 (A-375): 2440 nM | GI50 (DU-145 [4]): 5910 nM | GI50 (Malme-3M): 161 nM | GI50 (BT-549): 78 nM | GI50 (SW-620): 249 nM | GI50 (Hs-578T): 186 nM | GI50 (HT-29): 3770 nM | Activity [5]: 100% | IC50 (PC-3): 932 nM | GI50 (T47D): 34 nM | GI50 (MDA-MB-468): 20 nM | IC50 (MV4-11 [6]): 12.2 nM | GI50 (OVCAR-8): 360 nM | GI50 (HCT-116): 3660 nM
